The text below walks through data of patent publication US20220144848A1, “SUBSTITUTED OXOPYRIDINE DERIVATIVES” (Bayer Aktiengesellschaft, priority 2018, published 2022).

One assay addresses T1, human plasma kallikrein (Homo sapiens, UniProt P03952).
T1 construct: purchased Kordia
In words: Determination of the plasma kallikrein activity (fluorogenic peptide substrate H-Pro-Phe-Arg-AMC). It is filed as biochemical. The settings on record: plasma kallikrein from Kordia, 15 min preincubation, 30 min at 22° C., fluorescence; some as mean values from multiple determinations.

For the next assay, the target named is T2, human factor XIa (Homo sapiens, UniProt P03951).
T2 construct: purchased Kordia
T2 sequence (P03951 388-625 limits assumed): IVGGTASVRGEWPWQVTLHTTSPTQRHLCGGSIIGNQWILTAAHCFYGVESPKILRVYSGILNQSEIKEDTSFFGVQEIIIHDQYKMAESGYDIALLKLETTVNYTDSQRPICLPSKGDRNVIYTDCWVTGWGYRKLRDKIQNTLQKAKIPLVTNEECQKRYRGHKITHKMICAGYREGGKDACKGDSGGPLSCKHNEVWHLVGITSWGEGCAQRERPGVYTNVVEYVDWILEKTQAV
T2 sequence (P03951 19-387 partner limits assumed): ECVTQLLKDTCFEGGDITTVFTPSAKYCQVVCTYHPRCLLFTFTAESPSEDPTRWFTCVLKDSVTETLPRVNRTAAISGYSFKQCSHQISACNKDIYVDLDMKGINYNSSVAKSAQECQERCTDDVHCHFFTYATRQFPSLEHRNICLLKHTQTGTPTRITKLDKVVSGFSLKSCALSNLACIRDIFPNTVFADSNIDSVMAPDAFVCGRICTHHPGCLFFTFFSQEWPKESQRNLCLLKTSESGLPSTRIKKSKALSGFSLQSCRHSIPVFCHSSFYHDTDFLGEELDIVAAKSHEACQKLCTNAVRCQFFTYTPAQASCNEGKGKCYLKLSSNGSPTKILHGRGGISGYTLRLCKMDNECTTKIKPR
In words: Measurement of FXIa inhibition (fluorogenic peptide substrate Boc-Glu(OBzl)-Ala-Arg-AMC). Format: biochemical. The settings on record: factor XIa from Kordia, 15 min preincubation, 30 min at 22° C., fluorescence; some as mean values from multiple determinations.

T1 sequence (P03952 391-638 limits assumed): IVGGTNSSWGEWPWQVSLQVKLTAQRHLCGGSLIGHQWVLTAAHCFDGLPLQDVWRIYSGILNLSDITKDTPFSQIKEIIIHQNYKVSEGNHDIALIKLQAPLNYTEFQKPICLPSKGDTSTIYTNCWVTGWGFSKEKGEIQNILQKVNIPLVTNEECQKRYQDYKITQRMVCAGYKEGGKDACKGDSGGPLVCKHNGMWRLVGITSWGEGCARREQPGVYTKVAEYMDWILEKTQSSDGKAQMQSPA
T1 sequence (P03952 20-390 partner limits assumed): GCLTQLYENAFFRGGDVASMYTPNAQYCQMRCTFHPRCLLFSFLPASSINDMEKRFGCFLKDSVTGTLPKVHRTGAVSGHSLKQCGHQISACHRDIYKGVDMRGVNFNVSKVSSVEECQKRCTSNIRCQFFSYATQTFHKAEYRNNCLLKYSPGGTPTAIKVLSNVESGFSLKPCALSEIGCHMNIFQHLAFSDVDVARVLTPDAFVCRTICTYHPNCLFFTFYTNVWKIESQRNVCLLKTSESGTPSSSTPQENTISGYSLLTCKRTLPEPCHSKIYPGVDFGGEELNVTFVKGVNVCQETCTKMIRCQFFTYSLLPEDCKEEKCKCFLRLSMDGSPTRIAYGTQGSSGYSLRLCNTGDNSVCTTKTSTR

`NC(=O)c1ccc(NC(=O)C(C[C@@H]2COCCO2)n2cc3c(cc2=O)-c2cc(Cl)ccc2CC(CO)OC3)cc1` (mixture of isomers) [Example 36, 4-{2-[11-Chloro-7-(hydroxymethyl)-2-oxo-7,8-dihydro-2H-[3]benzoxocino[5,6-c]pyridin-3(5H)-yl]-3-[(2R)-1,4-dioxan-2-yl]propanamido}benzamide]: the IC50 against human plasma kallikrein was 1000 nM; against human factor XIa, 12 nM.
Consider `COCC[C@@H](C(=O)Nc1ccc(C(N)=O)c(F)c1)n1cc2c(cc1=O)-c1cc(Cl)ccc1C[C@@H](C(F)(F)F)OC2` (single isomer, unassigned) [Example 61], for which the 50% inhibitory concentration (IC50) against human plasma kallikrein was 340 nM; against human factor XIa it was 10 nM.
On the same counts, the results for `CC[C@@H]1Cc2ccc(Cl)cc2-c2cc(=O)n(C(C[C@@H]3CCCCO3)C(=O)Nc3ccc(C(N)=O)c(F)c3)cc2CO1` (mixture of isomers) [Example 30, 4-{2-[(7R)-11-Chloro-7-ethyl-2-oxo-7,8-dihydro-2H-[3]benzoxocino[5,6-c]pyridin-3(5H)-yl]-3-[(2S)-tetrahydro-2H-pyran-2-yl]propanamido}-2-fluorobenzamide] are 1300 nM and 25 nM.
For `C[C@@H]1Cc2ccc(Cl)cc2-c2cc(=O)n(C(C[C@H](C)OC(F)F)C(=O)Nc3ccc(C(N)=O)cc3)cc2CO1` (mixture of isomers) [Example 18, 4-{[(4S)-2-[(7R)-11-Chloro-7-methyl-2-oxo-7,8-dihydro-2H-[3]benzoxocino[5,6-c]pyridin-3(5H)-yl]-4-(difluoromethoxy)pentanoyl]amino}benzamide], in that order: 140 nM and 3.7 nM.
For `CO[C@@H](C)C[C@@H](C(=O)Nc1ccc(C(N)=O)cc1)n1cc2c(cc1=O)-c1c(ccc(Cl)c1Cl)C[C@@H](C(F)(F)F)OC2` (single isomer, unassigned) [Example 80], in that order: 280 nM and 9.5 nM.
As for `NC(=O)c1ccc(NC(=O)C(C[C@@H]2COCCO2)n2cc3c(cc2=O)-c2cc(Cl)ccc2CC(C(F)(F)F)OC3)cc1F` (mixture of isomers) [Example 56, 4-({2-[11-Chloro-2-oxo-7-(trifluoromethyl)-7,8-dihydro-2H-[3]benzoxocino[5,6-c]pyridin-3(5H)-yl]-3-[(2R)-1,4-dioxan-2-yl]propanoyl}amino)-2-fluorobenzamide], the IC50 against human plasma kallikrein amounted to 740 nM; on human factor XIa, 7.6 nM.
For `CC(C)OCC[C@@H](C(=O)Nc1ccc(C(N)=O)cc1)n1cc2c(cc1=O)-c1cc(Cl)ccc1C[C@@H](C)OC2` (single isomer, unassigned) [Example 20], in that order: 93 nM and 6.6 nM.
